Results from paper PMC6167049, “Structural and catalytic properties of the peroxygenase P450 enzyme CYP152K6 from Bacillus methanolicus” (Journal of Inorganic Biochemistry, 2018).

Legend:
CYP152K6 [1] = target: T1, CYP152K6 (Bacillus methanolicus, UniProt I3DZK9); experiment: X-band EPR and UV-visible spectroscopy; assay type: binding; details: ferric enzyme; EPR at 10 K, 1 and 2 mM ligand; UV-visible with 400 μM ligand, pH 8.0, 25 °C; H2O2-driven turnover also tested
T1 construct: gene cypC; codon-optimised synthetic gene in pET24b, E. coli BL21 (DE3); N-terminal 6xHis-tag cut with TEV protease; monomer; 417 residues in crystal model; co-purifies with tetradecanoic acid
T1 sequence (I3DZK9 whole entry): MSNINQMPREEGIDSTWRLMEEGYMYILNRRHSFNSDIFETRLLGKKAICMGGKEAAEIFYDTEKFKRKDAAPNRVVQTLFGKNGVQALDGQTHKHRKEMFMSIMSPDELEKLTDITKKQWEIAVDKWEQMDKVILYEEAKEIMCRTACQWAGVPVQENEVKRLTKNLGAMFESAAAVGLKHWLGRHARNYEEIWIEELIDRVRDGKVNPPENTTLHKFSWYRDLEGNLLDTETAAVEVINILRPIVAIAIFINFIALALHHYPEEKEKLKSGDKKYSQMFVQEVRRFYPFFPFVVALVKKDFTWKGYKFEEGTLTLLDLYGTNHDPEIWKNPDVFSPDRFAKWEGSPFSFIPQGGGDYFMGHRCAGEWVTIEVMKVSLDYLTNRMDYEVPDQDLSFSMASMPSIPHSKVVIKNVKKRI

CYP152K6 [2] = target: T1, CYP152K6; experiment: X-ray crystal structure, […] Å; assay type: binding; details: co-purified from E. coli, bound above heme at Arg244; pH 8.0 protein buffer

Row | SMILES | X-band EPR and UV-visible spectroscopy (CYP152K6 [1]) | X-ray crystal structure, 1.3 Å (CYP152K6 [2])
1 | CCCCCCCCCCCC(=O)O [dodecanoic acid] | the addition of dodecanoic acid alters the equilibria between the three major components | 
2 | CCCCCCCCCCCCCC(=O)O [tetradecanoic acid] |  | The final model of CYP152K6 in complex with tetradecanoic acid has been deposited
